Assay results published in the supplement of paper PMC10627819.

Key:
Test in all cases: Bliss interaction score (quartile over a dose matrix) (fitness difference); higher = more antagonism (negative = synergy)
B. subtilis 168 = tested on: B. subtilis 168
Method in brief: (§1)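 The Bliss score is observed fitness minus expected fitness, where the expected value is the product of single-drug fitness values inferred from combination data. Fitness is OD595 at entry into stationary phase normalised to the plate's robust no-drug mean and capped at 1. Scores are reported as quartiles spanning technical, biological and donor/recipient replicates.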

S. aureus DSM 20231 = tested on: S. aureus DSM 20231
Method in brief: as §1

S. aureus Newman = tested on: S. aureus Newman
Method in brief: as §1

S. pneumoniae D39V = tested on: S. pneumoniae D39V
Method in brief: as §1
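Also: first quartile when negative (synergy) and third quartile when positive (antagonism).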

SMILES | Bliss interaction score (B. subtilis 168) | Bliss interaction score (S. aureus DSM 20231) | Bliss interaction score (S. aureus Newman) | Bliss interaction score (S. pneumoniae D39V)
CO/N=C(\C(=O)N[C@@H]1C(=O)N2C(C(=O)[O-])=C(C[N+]3(C)CCCC3)CS[C@H]12)c1csc(N)n1 [Cefepime] + CC[C@H]1OC(=O)[C@H](C)[C@@H](O[C@H]2C[C@@](C)(OC)[C@@H](O)[C@H](C)O2)[C@H](C)[C@@H](O[C@@H]2O[C@H](C)C[C@H](N(C)C)[C@H]2O)[C@](C)(OC)C[C@@H](C)C(=O)[C@H](C)[C@@H](O)[C@]1(C)O [Clarithromycin] | 0.0395 | 0.128 | 0.0613 | 0.07
CO/N=C(\C(=O)N[C@@H]1C(=O)N2C(C(=O)[O-])=C(C[N+]3(C)CCCC3)CS[C@H]12)c1csc(N)n1 [Cefepime] + O=C(O[C@@H]1Cc2c(O)cc(O)cc2O[C@@H]1c1cc(O)c(O)c(O)c1)c1cc(O)c(O)c(O)c1 [EGCG] | 0.0402 | -0.159 | -0.0498 | 0.0602
CO/N=C(\C(=O)N[C@@H]1C(=O)N2C(C(=O)[O-])=C(C[N+]3(C)CCCC3)CS[C@H]12)c1csc(N)n1 [Cefepime] + CO[C@@H]1[C@@H](OC(N)=O)[C@@H](O)[C@H](Oc2ccc3c(O)c(NC(=O)c4ccc(O)c(CC=C(C)C)c4)c(=O)oc3c2C)OC1(C)C [Novobiocin] | -0.104 | 0.0654 | 0.0516 | -0.098
C[C@H]1COc2c(N3CCN(C)CC3)c(F)cc3c(=O)c(C(=O)O)cn1c23 [Levofloxacin] + CO[C@@]12[C@H](COC(N)=O)C3=C(C(=O)C(C)=C(N)C3=O)N1C[C@@H]1N[C@@H]12 [MitomycinC] | 0.0422 | 0.0462 | 0.0429 | -0.0941
CCCCCCCCCC(=O)N[C@@H](Cc1c[nH]c2ccccc12)C(=O)N[C@H](CC(N)=O)C(=O)N[C@@H](CC(=O)O)C(=O)N[C@@H]1C(=O)NCC(=O)N[C@@H](CCCN)C(=O)N[C@@H](CC(=O)O)C(=O)N[C@H](C)C(=O)N[C@@H](CC(=O)O)C(=O)NCC(=O)N[C@H](CO)C(=O)N[C@@H]([C@H](C)CC(=O)O)C(=O)N[C@@H](CC(=O)c2ccccc2N)C(=O)O[C@@H]1C [Daptomycin] + CC1(C)S[C@@H]2[C@H](NC(=O)Cc3ccccc3)C(=O)N2[C@H]1C(=O)O [PenicillinG] | 0.101 | 0.0411 | 0.0645 | 0.107
CCCCCCCCCC(=O)N[C@@H](Cc1c[nH]c2ccccc12)C(=O)N[C@H](CC(N)=O)C(=O)N[C@@H](CC(=O)O)C(=O)N[C@@H]1C(=O)NCC(=O)N[C@@H](CCCN)C(=O)N[C@@H](CC(=O)O)C(=O)N[C@H](C)C(=O)N[C@@H](CC(=O)O)C(=O)NCC(=O)N[C@H](CO)C(=O)N[C@@H]([C@H](C)CC(=O)O)C(=O)N[C@@H](CC(=O)c2ccccc2N)C(=O)O[C@@H]1C [Daptomycin] + CO[C@@]12[C@H](COC(N)=O)C3=C(C(=O)C(C)=C(N)C3=O)N1C[C@@H]1N[C@@H]12 [MitomycinC] | 0.0997 | 0.0739 | -0.0398 | -0.0769
Cn1nnc(-c2ccc(-c3ccc(N4C[C@H](CO)OC4=O)cc3F)cn2)n1 [Tedizolid] + CN(C)c1cc(NC(=O)CNC(C)(C)C)c(O)c2c1C[C@H]1C[C@H]3[C@H](N(C)C)C(O)=C(C(N)=O)C(=O)[C@@]3(O)C(O)=C1C2=O [Tigecycline] | -0.0434 | -0.107 | 0.0453 | -0.0764
Cn1nnc(-c2ccc(-c3ccc(N4C[C@H](CO)OC4=O)cc3F)cn2)n1 [Tedizolid] + CC[C@H]1OC(=O)[C@H](C)C(=O)[C@H](C)[C@@H](O[C@@H]2O[C@H](C)C[C@H](N(C)C)[C@H]2O)[C@](C)(OC)C[C@@H](C)C(=O)[C@H](C)[C@H]2N(CCCCn3cnc(-c4cccnc4)c3)C(=O)O[C@]12C [Telithromycin] | -0.0463 | -0.0684 | -0.0897 | -0.0527
CO/N=C(\C(=O)N[C@@H]1C(=O)N2C(C(=O)[O-])=C(C[N+]3(C)CCCC3)CS[C@H]12)c1csc(N)n1 [Cefepime] + CC(=O)O[C@H]1C[C@@]2(C)[C@@H](C[C@@H](O)[C@H]3[C@@]4(C)CC[C@@H](O)[C@@H](C)[C@@H]4CC[C@@]32C)/C1=C(\CCC=C(C)C)C(=O)O [Fusidic acid] | 0.0845 | 0.062 | 0.0735 | 0.174
CO/N=C(\C(=O)N[C@@H]1C(=O)N2C(C(=O)[O-])=C(C[N+]3(C)CCCC3)CS[C@H]12)c1csc(N)n1 [Cefepime] + N[C@@H]1CONC1=O [CycloserineD] | 0.0718 | 0.0932 | -0.0561 | 0.0926
CN(C)C(=O)C(CCN1CCC(O)(c2ccc(Cl)cc2)CC1)(c1ccccc1)c1ccccc1 [Loperamide] + Oc1cc(Cl)ccc1Oc1ccc(Cl)cc1Cl [Triclosan] | 0.0255 | -0.0746 | 0.0213 | -0.179
CN(C)C(=O)C(CCN1CCC(O)(c2ccc(Cl)cc2)CC1)(c1ccccc1)c1ccccc1 [Loperamide] + CC[C@H]1OC(=O)[C@H](C)C(=O)[C@H](C)[C@@H](O[C@@H]2O[C@H](C)C[C@H](N(C)C)[C@H]2O)[C@](C)(OC)C[C@@H](C)C(=O)[C@H](C)[C@H]2N(CCCCn3cnc(-c4cccnc4)c3)C(=O)O[C@]12C [Telithromycin] | 0.0814 | 0.0619 | -0.024 | 0.0977
CC1(C)S[C@@H]2[C@H](NC(=O)[C@H](N)c3ccc(O)cc3)C(=O)N2[C@H]1C(=O)O [Amoxicillin] + CC[C@H]1OC(=O)[C@H](C)[C@@H](O[C@H]2C[C@@](C)(OC)[C@@H](O)[C@H](C)O2)[C@H](C)[C@@H](O[C@@H]2O[C@H](C)C[C@H](N(C)C)[C@H]2O)[C@](C)(O)C[C@@H](C)C(=O)[C@H](C)[C@@H](O)[C@]1(C)O [Erythromycin] | 0.0751 | -0.023 | -0.0553 | 0.0883
